Experimental data published in patent US6326395A, “Antifungal activity of dicationic molecules” (priority 1999, dated 2001).
Where a name gives a salt, the structure may show the parent alone.

Tests used:
[1] = tested on: C. parapsilosis 111.96; assay: antifungal susceptibility testing (MIC, MFC), extended spectrum; format: cell-based, Candida parapsilosis; details: Lodderomyces parapsilosis
Experimental: Antifungal susceptibility testing for compounds set forth in Examples 1-20 is discussed hereinbelow. […]
In vitro susceptibility testing in the form of Minimum Inhibitory Concentration (MIC) experiments were performed using the broth macrodilution method according to the recommendations of the National Committee for Clinical Laboratory Standards (see 1995 manual). […] Briefly, this procedure specifies an inoculum grown at 35° C. and adjusted to a concentration of 0.5-2.5×10^3 CFU/ml with an incubation of the test performed at 35° C. and reading at 48 hours for all yeasts except for C. neoformans which is interpreted at 72 hr.
(§1) Minimum Fungicidal Concentration (MFC) experiments were adapted from a method by McGinnis (McGinnis, M. R., (1980) "Susceptibility testing and bioassay procedure", p. 431, Academic Press, Inc., New York). […] The lowest drug concentration that yielded three or fewer yeasts colonies was recorded as the MFC. […]
as §1, with “p.431,” for “p. 431,”, “3” for “three”

[2] = tested on: Candida albicans; assay: in vitro antifungal susceptibility testing (MIC, MFC; broth macrodilution), Tables 1-7; format: cell-based
Description: (§2) The fungi that were employed included two reference strains, C. neoformans var. neoformans H99 and C. albicans A39 and the following clinical isolates: (1) two strains of fluconazole-resistant C. neoformans var. neoformans (135.95 and 114.96); (2) two strains of C. neoformans var. gattii (119.95 and 114.95); (3) two strains of fluconazole-resistant C. albicans (102.96 and 103.96); and (4) one strain each of Torulopsis glabrata (142.91), Candida parapsilosis (111.96), Candida krusei (132.91), C. tropicalis (110.96), Candida lusitaniae (111.92), Fusarium solani (152.89), Aspergillus fumigatus (168.95), and Aspergillus flavus (112.96). Antifungal susceptibility testing was performed using an RPMI-1640 medium (Sigma Chemical Co., St. Louis, Mo.) with glutamine, without sodium bicarbonate, and buffered at pH 7.0 with 0.165 M morpholine-propanesulfonic acid (MOPS).
(§3) In vitro susceptibility testing in the form of Minimum Inhibitory Concentration (MIC) experiments were performed using the broth macrodilution method according to the recommendations of the National Committee for Clinical Laboratory Standards (see 1995 manual). The only difference compared to the standardized procedure was the choice of drug dilutions ranging from 100 to 0.09 μg/ml. Briefly, this procedure specifies an inoculum grown at 35° C. and adjusted to a concentration of 0.5-2.5×10^3 CFU/ml with an incubation of the test performed at 35° C. and reading at 48 hours for all yeasts except for C. neoformans which is interpreted at 72 hr.
(§4) Minimum Fungicidal Concentration (MFC) experiments were adapted from a method by McGinnis (McGinnis, M. R., (1980) "Susceptibility testing and bioassay procedure", p. 431, Academic Press, Inc., New York). Briefly, 10 μl aliquots from tubes with growth inhibition were plated onto Sabouraud agar plates.
(§5) The fungi that were employed included two quality control reference strains, C. neoformans var. neoformansH99 and C. albicans A39 and the following clinical isolates: (1) four strains of C. neoformans var. neoformans (167.95; 135.95; 114.96; and 133.95) of which three were fluconazole-resistant>64 μg/ml (135.95; 114.96; and 133.95); (2) two strains of C. neoformans var. gattii (119.95 and 114.95); (3) two strains of fluconazole-resistant>64 μg/ml C. albicans (102.96 and 103.96); and (4) one strain each of C. glabrata (142.91), Candida parapsilosis (111.96), Candida krusei (132.91), C. tropicalis (110.96), Candida lusitaniae (111.92), Fusarium solani (152.89), Aspergillus fumigatus (168.95), Rhizopus arrhizus (117.89), Paecilomyces lilacinus (137.90), and Aspergillus flavus (112.96). Antifungal susceptibility testing was performed using an RPMI-1640 medium (Sigma Chemical Co., St. Louis, Mo.) with glutamine, without sodium bicarbonate, and buffered at pH 7.0 with 0.165 M morpholinepropanesulfonic acid (MOPS).
as §4, with “p.431,” for “p. 431,”

[3] = tested on: Cryptococcus neoformans; assay: as above; format: cell-based
Description: as §2, §3, §4, §5
as §4, with “p.431,” for “p. 431,”

[4] = tested on: C. tropicalis 110.96; assay: antifungal susceptibility testing (MIC, MFC), extended spectrum; format: cell-based; details: Candida tropicalis
Description: as §2, with “Antifungal susceptibility testing for compounds set forth in Examples 1-20 is discussed hereinbelow. The” for “The”
as §3
(§6) Minimum Fungicidal Concentration (MFC) experiments were adapted from a method by McGinnis (McGinnis, M. R., (1980) "Susceptibility testing and bioassay procedure", p. 431, Academic Press, Inc., New York). Briefly, 10 μl aliquots from tubes with growth inhibition were plated onto Sabouraud agar plates. The lowest drug concentration that yielded three or fewer yeasts colonies was recorded as the MFC.
(§7) Antifungal susceptibility testing for compounds set forth in Examples 21-28 is discussed hereinbelow. […]
as §1, with “p.431,” for “p. 431,”, “3” for “three”

[5] = tested on: Torulopsis glabrata 142.91; assay: as above; format: cell-based; details: Nakaseomyces glabratus
Description: as §2, with “Antifungal susceptibility testing for compounds set forth in Examples 1-20 is discussed hereinbelow. The” for “The”
as §3, §6, §7
as §1, with “p.431,” for “p. 431,”, “3” for “three”

`CC(C)NC(=N)c1ccc2nc(-c3ccc4c(c3)Cc3cc(-c5nc6ccc(C(=N)NC(C)C)cc6[nH]5)ccc3-4)[nH]c2c1` [Compound 57, 2,7-Bis[2-(5-N-isopropylamidino)benzimidazoyl]fluorene hydrochloride] gave an MFC [1] of 0.78 µg/mL, an MIC ([1]; 48 hours, read-out: MIC80) of 0.78 µg/mL and an MIC ([2]; 35° C., reading at 48 hours, read-out: MIC80 (Minimum inhibitory concentration 80%)) of 0.78 µg/mL. The MFC ([2]; three or fewer colonies, read-out: MFC (Minimum fungicidal concentration)) was 1.56 µg/mL, the MIC ([3]; 35° C., 72 hr, read-out: MIC80 (Minimum inhibitory concentration 80%)) was 0.78 µg/mL and the MFC ([3]; Tables 2-7, three or fewer colonies, read-out: MFC (Minimum fungicidal concentration)) was 0.78 µg/mL. It also gave an MFC [4] of 1.56 µg/mL, an MIC ([4]; 48 hours, read-out: MIC80) of 0.78 µg/mL and an MFC [5] of 0.78 µg/mL. For the same compound, the MIC ([5]; 48 hours, read-out: MIC80) was 0.78 µg/mL.
